Reference: the supplement of paper PMC10307832

What was measured:
Experiment in all cases: relative viability (nuclei count vs DMSO), 5 days (fraction); higher = more cells survive
NCI-H322M = system: NCI-H322M
Method in brief: (§1)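 Cells from lung cancer lines were seeded into 1536-well plates and, one day later, dosed by pin tool. Treatments were either a single drug or a fixed dose of an anchor drug with five library-drug doses (not always all listed) in √10 steps. After 5 days, nuclei were stained in a one-step fixation (final 0.05% Triton X-100, 1% formaldehyde, 1 ug/ml Hoechst) and counted on 4× images, and relative viability is the treated-to-vehicle nuclei ratio, as the median of duplicate plates.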

SW 1573 = system: SW 1573
Method in brief: as §1

NCI-H1355 = system: NCI-H1355
Method in brief: as §1

PC-14 = system: PC-14
Method in brief: as §1

HCC-15 = system: HCC-15
Method in brief: as §1

NCI-H2342 = system: NCI-H2342
Method in brief: as §1

NCI-H2405 = system: NCI-H2405
Method in brief: as §1

COR-L23 = system: COR-L23
Method in brief: as §1

PC-3 [JPC-3] = system: PC-3 [JPC-3]
Method in brief: as §1

ABC-1 = system: ABC-1
Method in brief: as §1

EKVX = system: EKVX
Method in brief: as §1

NCI-H661 = system: NCI-H661
Method in brief: as §1

NCI-H2228 = system: NCI-H2228
Method in brief: as §1

NCI-H1563 = system: NCI-H1563
Method in brief: as §1

NCI-H1650 = system: NCI-H1650
Method in brief: as §1

H3255 = system: H3255
Method in brief: as §1

NCI-H1437 = system: NCI-H1437
Method in brief: as §1

RERF-LC-KJ = system: RERF-LC-KJ
Method in brief: as §1

LK-2 = system: LK-2
Method in brief: as §1

HCC-827 = system: HCC-827
Method in brief: as §1

CAL-12T = system: CAL-12T
Method in brief: as §1

NCI-H520 = system: NCI-H520
Method in brief: as §1

NCI-H1734 = system: NCI-H1734
Method in brief: as §1

`NC(=O)Nc1cc(-c2cccc(F)c2)sc1C(=O)N[C@H]1CCCNC1` [AZD7762] + COc1cccc2cc(-c3nc([C@H]4CC[C@H](C(=O)O)CC4)n4ncnc(N)c34)[nH]c12 [OSI-027] (partner 0.5 µM) was tested, and the relative viability (NCI-H322M; first compound 0.01 µM) was 0.555, the relative viability (NCI-H322M; first compound 0.03162 µM) was 0.581 and the relative viability (NCI-H322M; first compound 0.1 µM) was 0.562. The relative viability (NCI-H322M; first compound 0.3162 µM) was 0.254, the relative viability (NCI-H322M; first compound 1 µM) was 0.255 and the relative viability (SW 1573; first compound 0.01 µM) was 0.69. It also gave a relative viability (SW 1573; first compound 0.03162 µM) of 0.65, a relative viability (SW 1573; first compound 0.1 µM) of 0.742 and a relative viability (SW 1573; first compound 0.3162 µM) of 0.422. For the same compound, the relative viability (SW 1573; first compound 1 µM) was 0.176, the relative viability (NCI-H1355; first compound 0.01 µM) was 0.389 and the relative viability (NCI-H1355; first compound 0.03162 µM) was 0.489. It also gave a relative viability (NCI-H1355; first compound 0.1 µM) of 0.515, a relative viability (NCI-H1355; first compound 0.3162 µM) of 0.443 and a relative viability (NCI-H1355; first compound 1 µM) of 0.418. The relative viability (PC-14; first compound 0.01 µM) was 0.847, the relative viability (PC-14; first compound 0.03162 µM) was 0.816 and the relative viability (PC-14; first compound 0.1 µM) was 0.734. It also gave a relative viability (PC-14; first compound 0.3162 µM) of 0.287, a relative viability (PC-14; first compound 1 µM) of 0.0799 and a relative viability (HCC-15; first compound 0.01 µM) of 0.664. For the same compound, the relative viability (HCC-15; first compound 0.03162 µM) was 0.702, the relative viability (HCC-15; first compound 0.1 µM) was 0.72 and the relative viability (HCC-15; first compound 0.3162 µM) was 0.766. For the same compound, the relative viability (HCC-15; first compound 1 µM) was 0.64, the relative viability (NCI-H2342; first compound 0.01 µM) was 0.612 and the relative viability (NCI-H2342; first compound 0.03162 µM) was 0.714. It also gave a relative viability (NCI-H2342; first compound 0.1 µM) of 0.611, a relative viability (NCI-H2342; first compound 0.3162 µM) of 0.586 and a relative viability (NCI-H2342; first compound 1 µM) of 0.588. For the same compound, the relative viability (NCI-H2405; first compound 0.01 µM) was 0.608, the relative viability (NCI-H2405; first compound 0.03162 µM) was 0.676 and the relative viability (NCI-H2405; first compound 0.1 µM) was 0.623. It also gave a relative viability (NCI-H2405; first compound 0.3162 µM) of 0.664, a relative viability (NCI-H2405; first compound 1 µM) of 0.455 and a relative viability (COR-L23; first compound 0.01 µM) of 0.866. The relative viability (COR-L23; first compound 0.03162 µM) was 0.866, the relative viability (COR-L23; first compound 0.1 µM) was 0.758 and the relative viability (COR-L23; first compound 0.3162 µM) was 0.711. It also gave a relative viability (COR-L23; first compound 1 µM) of 0.285, a relative viability (PC-3 [JPC-3]; first compound 0.01 µM) of 0.714 and a relative viability (PC-3 [JPC-3]; first compound 0.03162 µM) of 0.832. It also gave a relative viability (PC-3 [JPC-3]; first compound 0.1 µM) of 0.858, a relative viability (PC-3 [JPC-3]; first compound 0.3162 µM) of 0.751 and a relative viability (PC-3 [JPC-3]; first compound 1 µM) of 0.684. It also gave a relative viability (ABC-1; first compound 0.01 µM) of 0.469, a relative viability (ABC-1; first compound 0.03162 µM) of 0.517 and a relative viability (ABC-1; first compound 0.1 µM) of 0.414. It also gave a relative viability (ABC-1; first compound 0.3162 µM) of 0.349, a relative viability (ABC-1; first compound 1 µM) of 0.161 and a relative viability (EKVX; first compound 0.01 µM) of 0.726. It also gave a relative viability (EKVX; first compound 0.03162 µM) of 0.75, a relative viability (EKVX; first compound 0.1 µM) of 0.653 and a relative viability (EKVX; first compound 0.3162 µM) of 0.604. The relative viability (EKVX; first compound 1 µM) was 0.628, the relative viability (NCI-H661; first compound 0.01 µM) was 0.731 and the relative viability (NCI-H661; first compound 0.03162 µM) was 0.717. For the same compound, the relative viability (NCI-H661; first compound 0.1 µM) was 0.616, the relative viability (NCI-H661; first compound 0.3162 µM) was 0.559 and the relative viability (NCI-H661; first compound 1 µM) was 0.319. It also gave a relative viability (NCI-H2228; first compound 0.01 µM) of 0.513, a relative viability (NCI-H2228; first compound 0.03162 µM) of 0.847 and a relative viability (NCI-H2228; first compound 0.1 µM) of 0.492. For the same compound, the relative viability (NCI-H2228; first compound 0.3162 µM) was 0.302, the relative viability (NCI-H2228; first compound 1 µM) was 0.152 and the relative viability (NCI-H1563; first compound 0.01 µM) was 0.792. The relative viability (NCI-H1563; first compound 0.03162 µM) was 0.781, the relative viability (NCI-H1563; first compound 0.1 µM) was 0.748 and the relative viability (NCI-H1563; first compound 0.3162 µM) was 0.804. For the same compound, the relative viability (NCI-H1563; first compound 1 µM) was 0.771, the relative viability (NCI-H1650; first compound 0.01 µM) was 0.688 and the relative viability (NCI-H1650; first compound 0.03162 µM) was 0.638. For the same compound, the relative viability (NCI-H1650; first compound 0.1 µM) was 0.708, the relative viability (NCI-H1650; first compound 0.3162 µM) was 0.425 and the relative viability (NCI-H1650; first compound 1 µM) was 0.206. For the same compound, the relative viability (H3255; first compound 0.01 µM) was 0.572, the relative viability (H3255; first compound 0.03162 µM) was 0.506 and the relative viability (H3255; first compound 0.1 µM) was 0.534. For the same compound, the relative viability (H3255; first compound 0.3162 µM) was 0.629, the relative viability (H3255; first compound 1 µM) was 0.607 and the relative viability (NCI-H1437; first compound 0.01 µM) was 0.888. The relative viability (NCI-H1437; first compound 0.03162 µM) was 0.833, the relative viability (NCI-H1437; first compound 0.1 µM) was 0.974 and the relative viability (NCI-H1437; first compound 0.3162 µM) was 0.87. It also gave a relative viability (NCI-H1437; first compound 1 µM) of 0.695, a relative viability (RERF-LC-KJ; first compound 0.01 µM) of 0.587 and a relative viability (RERF-LC-KJ; first compound 0.03162 µM) of 0.668. The relative viability (RERF-LC-KJ; first compound 0.1 µM) was 0.77, the relative viability (RERF-LC-KJ; first compound 0.3162 µM) was 0.666 and the relative viability (RERF-LC-KJ; first compound 1 µM) was 0.499. The relative viability (LK-2; first compound 0.01 µM) was 0.192, the relative viability (LK-2; first compound 0.03162 µM) was 0.228 and the relative viability (LK-2; first compound 0.1 µM) was 0.213. For the same compound, the relative viability (LK-2; first compound 0.3162 µM) was 0.186, the relative viability (LK-2; first compound 1 µM) was 0.165 and the relative viability (HCC-827; first compound 0.01 µM) was 0.787. For the same compound, the relative viability (HCC-827; first compound 0.03162 µM) was 0.802, the relative viability (HCC-827; first compound 0.1 µM) was 0.863 and the relative viability (HCC-827; first compound 0.3162 µM) was 0.875. The relative viability (HCC-827; first compound 1 µM) was 0.537, the relative viability (CAL-12T; first compound 0.01 µM) was 0.676 and the relative viability (CAL-12T; first compound 0.03162 µM) was 0.73. For the same compound, the relative viability (CAL-12T; first compound 0.1 µM) was 0.768, the relative viability (CAL-12T; first compound 0.3162 µM) was 0.487 and the relative viability (CAL-12T; first compound 1 µM) was 0.124. It also gave a relative viability (NCI-H520; first compound 0.01 µM) of 0.294, a relative viability (NCI-H520; first compound 0.03162 µM) of 0.246 and a relative viability (NCI-H520; first compound 0.1 µM) of 0.246. The relative viability (NCI-H520; first compound 0.3162 µM) was 0.243, the relative viability (NCI-H520; first compound 1 µM) was 0.16 and the relative viability (NCI-H1734; first compound 0.01 µM) was 0.638. It also gave a relative viability (NCI-H1734; first compound 0.03162 µM) of 0.704, a relative viability (NCI-H1734; first compound 0.1 µM) of 0.642 and a relative viability (NCI-H1734; first compound 0.3162 µM) of 0.374. The relative viability (NCI-H1734; first compound 1 µM) was 0.238.
